Assay [1] concerns Gerbil, jird. Nature of the assay: Inhibition of GR-73632-induced foot-tapping in gerbils after 24 h at 3 mg/kg, iv. The assay is classed as functional. To be noted: Meriones.
Assay [2] addresses Voltage-gated inwardly rectifying potassium channel KCNH2 (Homo sapiens, UniProt Q12809). Nature of the assay: Displacement of labelled MK-499 from cloned channel hERG expressed in HEK cells. The assay is classed as cell-based, HEK293. A general note: The hERG channel carries a current that helps repolarise heart muscle cells.
For another assay, the system named is Mustela putorius furo. Nature of the assay: Inhibition of cis-platin induced emesis in ferrets at 1 mg/kg, iv. The assay is classed as functional.
For a further assay, the target named is Substance-P receptor (Homo sapiens, UniProt P25103). As to the kind of experiment: Displacement of [125I]-labeled substance P from the cloned human NK1 receptor expressed in CHO cells. The assay is classed as cell-based. (In general: Loss of bound radioactivity is the signal in a displacement assay; it reports binding, not function.)
For assay [3], the system named is Gerbil, jird. As to the kind of experiment: Inhibition of GR-73632-induced foot-tapping in iv dosed gerbils after 0 h. The assay is classed as functional. To be noted: Meriones, read-out: ID50 (the source's name).
Assay [4] concerns Gerbil, jird. As to the kind of experiment: Inhibition of GR-73632-induced foot-tapping in iv dosed gerbils after 24 h. To be noted: Meriones, read-out: ID50 (the source's name).
For assay [5], the system named is Gerbil, jird. As to the kind of experiment: Inhibition of GR-73632-induced foot-tapping in iv dosed gerbils after 24 h. The assay is classed as functional. To be noted: Meriones, read-out: ID50 (the source's name).
Assay [6] has as its system Gerbil, jird. Nature of the assay: Inhibition of GR-73632-induced foot-tapping in iv dosed gerbils after 2 h. The assay is classed as functional. To be noted: Meriones, read-out: ID50 (the source's name).
In assay [7] the test system is Gerbil, jird. As to the kind of experiment: Inhibition of GR-73632-induced foot-tapping in po dosed gerbils after 24 h. To be noted: Meriones, read-out: ID50 (the source's name). The assay is classed as functional.

Sequence of Voltage-gated inwardly rectifying potassium channel KCNH2 (Q12809 whole entry): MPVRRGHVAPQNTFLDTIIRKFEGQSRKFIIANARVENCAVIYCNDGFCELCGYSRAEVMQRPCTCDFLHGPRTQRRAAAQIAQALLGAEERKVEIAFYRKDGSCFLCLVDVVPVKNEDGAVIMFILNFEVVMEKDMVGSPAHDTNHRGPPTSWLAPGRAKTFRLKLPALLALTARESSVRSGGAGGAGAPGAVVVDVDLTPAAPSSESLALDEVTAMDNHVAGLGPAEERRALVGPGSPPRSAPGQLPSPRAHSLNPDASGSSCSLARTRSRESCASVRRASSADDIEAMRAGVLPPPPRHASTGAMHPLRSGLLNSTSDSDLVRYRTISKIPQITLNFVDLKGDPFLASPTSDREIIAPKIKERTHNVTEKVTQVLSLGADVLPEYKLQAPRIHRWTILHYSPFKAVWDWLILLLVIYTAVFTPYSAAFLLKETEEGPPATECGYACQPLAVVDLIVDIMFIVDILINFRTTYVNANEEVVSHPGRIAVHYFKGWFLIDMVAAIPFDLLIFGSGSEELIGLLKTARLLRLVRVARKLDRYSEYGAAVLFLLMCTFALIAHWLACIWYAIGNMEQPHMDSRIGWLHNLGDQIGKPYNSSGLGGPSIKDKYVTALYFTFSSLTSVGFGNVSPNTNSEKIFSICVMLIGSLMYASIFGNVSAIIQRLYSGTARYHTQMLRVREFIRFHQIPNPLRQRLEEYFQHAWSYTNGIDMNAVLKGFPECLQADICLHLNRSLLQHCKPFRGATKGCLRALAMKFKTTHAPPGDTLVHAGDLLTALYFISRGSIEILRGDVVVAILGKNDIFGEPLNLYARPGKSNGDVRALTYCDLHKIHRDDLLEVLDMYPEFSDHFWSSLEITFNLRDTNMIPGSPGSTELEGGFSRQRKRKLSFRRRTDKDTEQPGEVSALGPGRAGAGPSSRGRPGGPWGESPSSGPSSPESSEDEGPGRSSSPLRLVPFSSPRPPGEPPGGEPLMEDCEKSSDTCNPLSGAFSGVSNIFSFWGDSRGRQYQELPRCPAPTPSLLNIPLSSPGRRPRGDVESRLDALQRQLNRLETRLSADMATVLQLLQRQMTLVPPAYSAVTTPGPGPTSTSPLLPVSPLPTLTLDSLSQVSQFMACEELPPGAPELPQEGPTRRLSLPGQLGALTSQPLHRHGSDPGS
Sequence of Substance-P receptor (P25103 whole entry): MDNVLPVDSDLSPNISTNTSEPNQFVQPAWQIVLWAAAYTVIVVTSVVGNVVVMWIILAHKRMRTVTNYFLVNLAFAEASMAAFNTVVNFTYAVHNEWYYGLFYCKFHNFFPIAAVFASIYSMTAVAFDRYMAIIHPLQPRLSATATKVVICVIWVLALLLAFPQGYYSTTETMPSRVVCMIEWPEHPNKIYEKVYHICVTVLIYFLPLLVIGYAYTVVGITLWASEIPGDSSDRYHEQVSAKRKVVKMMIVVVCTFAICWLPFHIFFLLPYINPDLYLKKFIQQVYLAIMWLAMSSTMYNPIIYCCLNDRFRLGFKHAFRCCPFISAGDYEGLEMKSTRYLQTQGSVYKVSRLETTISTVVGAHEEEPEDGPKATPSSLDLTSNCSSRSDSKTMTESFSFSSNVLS

A word on the inhibition in vivo: it is how much of the control response was suppressed. A higher inhibition in vivo goes with strong suppression. By Ki is commonly meant the dissociation constant of the complex between target and ligand, obtained from inhibition or displacement. Usually IC50 stands for the concentration that inhibits the measured activity by half. Low readings indicate inhibition by little substance, high ones a need for much substance. As to `O=C1C(c2cc(C(F)(F)F)cc(C(F)(F)F)c2)CCN1[C@]1(c2ccccc2)CC[C@@H](N2CCC3(CCOC3)CC2)CC1` (some centres undefined), testing at 3 mg/kg in the assay with Gerbil, jird [1] gave an inhibition in vivo of 62%. The same molecule returned a Ki in assay [2] of 327 nM. Further, in the assay with Mustela putorius furo, the inhibition in vivo at 1 mg/kg worked out at 50%. For the same molecule, the IC50 on Substance-P receptor was found to be 0.5 nM. Moreover, the ED50 in the assay with Gerbil, jird [3] is 0.35 mg/kg.

In the assay with Gerbil, jird [1], `O=C1N([C@]2(c3ccccc3)CC[C@@H](N3CCC4(CCOC4)CC3)CC2)CCC1(O)c1cc(C(F)(F)F)cc(C(F)(F)F)c1` (some centres undefined) registered an inhibition in vivo at 3 mg/kg of 5%. This molecule also had an inhibitory constant (Ki) in assay [2] of 862 nM. The same molecule gave an IC50 at Substance-P receptor of 0.66 nM.

As to `CN(C)[C@H]1CC[C@](c2ccccc2)(N2CCC(c3cc(C(F)(F)F)cc(C(F)(F)F)c3)C2=O)CC1` (some centres undefined), the affinity in assay [2] corresponds to a Ki of 984 nM. The molecule also registered an IC50 at Substance-P receptor of 6.2 nM.

In turn, `O=C1CN([C@H]2CC[C@](c3ccccc3)(N3CCC(c4cc(C(F)(F)F)cc(C(F)(F)F)c4)C3=O)CC2)CCN1c1ccccc1` (some centres undefined) came in with a Ki in assay [2] of 2000 nM. This molecule had an IC50 on Substance-P receptor of 1.1 nM. In addition, the ED50 in the assay with Gerbil, jird [3] was 0.09 mg/kg; in the assay with Gerbil, jird [4], 2.1 mg/kg.

As to `CC1(c2cc(C(F)(F)F)cc(C(F)(F)F)c2)CCN([C@]2(c3ccccc3)CC[C@@H](N3CCC4(CCOC4)CC3)CC2)C1=O` (some centres undefined), the ED50 in the assay on Gerbil, jird [5] is 0.24 mg/kg. This molecule also yielded a Ki in [2] of 364 nM. For the same molecule, at Substance-P receptor, the IC50 came out at 0.33 nM.

As for `CC(C(=O)N[C@]1(c2ccccc2)CC[C@@H](N2CCN(c3ccccc3)C(=O)C2)CC1)c1cc(C(F)(F)F)cc(C(F)(F)F)c1` (some centres undefined), the ED50 in the assay with Gerbil, jird [5] came out at 1.2 mg/kg; in the assay with Gerbil, jird [3], 0.13 mg/kg. This molecule also displayed a Ki in assay [2] of 3710 nM. On Substance-P receptor, this molecule had an IC50 of 0.62 nM.

The molecule `O=C1CN([C@H]2CC[C@](c3ccccc3)(N3CCCC(c4cc(C(F)(F)F)cc(C(F)(F)F)c4)C3=O)CC2)CCN1c1ccccc1` (some centres undefined) came in with a Ki in assay [2] of 6530 nM. This molecule also came in with an IC50 on Substance-P receptor of 1.5 nM.

With `O=C1C(c2cc(C(F)(F)F)cc(C(F)(F)F)c2)CCCN1[C@]1(c2ccccc2)CC[C@@H](N2CCC3(CCOC3)CC2)CC1` (some centres undefined), the inhibition in vivo at 3 mg/kg in the assay on Gerbil, jird [1] amounted to 34%. Also, the Ki in assay [2] was 798 nM. This molecule also yielded an IC50 at Substance-P receptor of 0.8 nM.

As for `CC(C(=O)N[C@]1(c2ccccc2)CC[C@@H](N2CCC3(CCOC3)CC2)CC1)c1cc(C(F)(F)F)cc(C(F)(F)F)c1` (some centres undefined), the ED50 with Gerbil, jird [6] amounted to 1.1 mg/kg; in the assay with Gerbil, jird [5], 1.62 mg/kg; in the assay on Gerbil, jird [7] it was 2.2 mg/kg; with Gerbil, jird [3], 1.44 mg/kg. Moreover, at Substance-P receptor, the IC50 was 0.34 nM.

In the case of `CC1(c2cc(C(F)(F)F)cc(C(F)(F)F)c2)CCN([C@]2(c3ccccc3)CC[C@@H](N3CCN(c4ccccc4Cl)C(=O)C3)CC2)C1=O` (some centres undefined), 3 mg/kg produced 57% inhibition in vivo with Gerbil, jird [1]. At Substance-P receptor, this molecule came in with an IC50 of 0.48 nM.

Turning to `COC1(c2cc(C(F)(F)F)cc(C(F)(F)F)c2)CCN([C@]2(c3ccccc3)CC[C@@H](N3CCC4(CCOC4)CC3)CC2)C1=O` (some centres undefined), the inhibition in vivo at 3 mg/kg in the assay with Gerbil, jird [1] stood at 29%. The same molecule returned an IC50 on Substance-P receptor of 0.48 nM.

With `CC1(c2cc(C(F)(F)F)cc(C(F)(F)F)c2)CCN([C@]2(c3ccccc3)CC[C@@H](N3CCN(c4ccccc4)C(=O)C3)CC2)C1=O` (some centres undefined), the ED50 worked out at 0.6 mg/kg with Gerbil, jird [5] and 0.22 mg/kg in the assay on Gerbil, jird [3]. The same molecule came in with an inhibition in vivo at 1 mg/kg in the assay with Mustela putorius furo of 90%. Moreover, at Substance-P receptor, the IC50 is 0.48 nM.
